# Where “and” joins values, the source holds several entries; their conditions need not be identical. Identical values can stand only once. Like-named read-outs stand apart in the source and are kept apart here.
# Legend:
# Assay type in all cases: cell-based
# [1] = tested on: HepG2 (human hepatocellular carcinoma); test: Cytotoxic activity, alamar blue assay, HepG2
# Excerpt: (§1) HCT116 (human colon carcinoma), HepG2 (human hepatocellular carcinoma), HSC-3 (human oral squamous cell carcinoma), SCC-4 (human oral squamous cell carcinoma), SCC-9 (human oral squamous cell carcinoma), HL-60 (human promyelocytic leukemia), K-562 (human chronic myelogenous leukemia), B16-F10 (murine melanoma), MRC-5 (human lung fibroblast), WT SV40 MEF (wild-type immortalized mouse embryonic fibroblast) and BAD KO SV40 MEF (BAD gene knockout immortalized mouse embryonic fibroblast) cell lines were obtained from the American Type Culture Collection (ATCC, Manassas, VA, USA) and cultured in RPMI-1640 medium (Gibco-BRL, Gaithersburg, MD, USA) with 10% fetal bovine serum (Life, Carlsbad, CA, USA), 2 mM L-glutamine (Vetec Química Fina, Duque de Caxias, RJ, Brazil) and 50 μg/mL gentamycin (Life, Carlsbad, CA, USA). Adherent cells were collected by treatment with 0.25% trypsin EDTA solution (Gibco-BRL, Gaithersburg, MD, USA). All cell lines were cultured in flasks at 37°C in 5% CO2 and sub-cultured every 3-4 days to maintain exponential growth.
# (§2) Cell viability was quantified using the alamar blue assay, according to Ahmed et al.. Cells were inserted in 96-well plates for all experiments (7 x 10^4 cells/mL for adherent cells or 3 x 10^5 cells/mL for suspended cells in 100 μL of medium). […] Negative controls received the vehicle that was used for diluting the compounds tested.
# [2] = tested on: HSC-3 (human oral squamous cell carcinoma); test: Cytotoxic activity, alamar blue assay, HSC-3
# Excerpt: as §1, §2
# [3] = tested on: SCC-4 (human oral squamous cell carcinoma); test: Cytotoxic activity, alamar blue assay, SCC-4
# Excerpt: as §1, §2
# [4] = tested on: WT SV40 MEF (wild-type immortalized mouse embryonic fibroblast); test: Cytotoxic activity, alamar blue assay, WT SV40 MEF; conditions: WT SV40 MEF, 72 h incubation, alamar blue, read-out: IC50
# Excerpt: as §1, §2
# HCT116 cells = test: Gene expression analysis by qPCR array (TaqMan Array Human Molecular Mechanisms of Cancer); conditions: HCT116, 12 h, DOX 1 μM, PL 10 μM, 1 2.5 μM, 2 5 μM, negative control RQ = 1.0
# Protocol: HCT116 cells were plated in bottles tissue culture (7x10^4 cells/mL). After 12h of incubation with the complexes, total RNA was isolated from the cells using the RNeasy Plus mini kit (Qiagen, Hilden, Germany) according to the manufacturer’s instructions. The RNA was evaluated by fluorimetry (QuBit™, Life Technologies, Camarillo, CA, EUA). RNA reverse transcription was performed using Superscript VILO™ (Invitrogen Corporation, Waltham, MA, USA). A 96-well plate TaqMan® Array Human Molecular Mechanisms of Cancer (ID 4418806, Applied Biosystems™, Foster City, CA, EUA) was used for the gene expression study by qPCR. The reactions were conducted in the ABI ViiA7 (Applied Biosystems™, Foster City, CA, EUA). The cycle conditions comprised 2 min at 50 °C, 20 s at 95 °C, then 40 cycles of 3 s at 95 °C and 30 s at 60 °C. […] The GAPDH, 18S and HPRT1 genes were used for normalization. All experiments were performed in DNase/RNase free conditions.
molecule,measurement,setting,value
[Ru(piplartine)(dppf)(bipy)](PF6)2 [Complex 1],more potent than metal-free piplartine,"[1]; HepG2, IC50 72h",4 fold
same,Selectivity index (SI),[1]; SI = IC50[MRC-5]/IC50[HepG2],2.0
same,Selectivity index (SI),[1]; SI = IC50[PBMC]/IC50[HepG2],1.1
same,more potent than metal-free piplartine,"[2]; HSC3, IC50 72h",12 fold
same,Selectivity index (SI),[2]; SI = IC50[MRC-5]/IC50[HSC-3],5.7
same,Selectivity index (SI),[2]; SI = IC50[PBMC]/IC50[HSC-3],3.0
same,more potent than metal-free piplartine,"[3]; SCC4, IC50 72h",5 fold
same,Selectivity index (SI),[3]; SI = IC50[MRC-5]/IC50[SCC-4],1.1
same,Selectivity index (SI),[3]; SI = IC50[PBMC]/IC50[SCC-4],0.6
same,IC50,[4],2400 nM
same,RQ ABL1,HCT116 cells,1.302
same,RQ AKT1,HCT116 cells,1.469
same,RQ AKT2,HCT116 cells,1.663
same,RQ APC,HCT116 cells,0.972
same,RQ BAX,HCT116 cells,1.572
same,RQ BCAR1,HCT116 cells,1.687
same,RQ BCL2,HCT116 cells,2.4 and 2.367
same,RQ BCL2L1,HCT116 cells,1.936
same,RQ BCL2L11,HCT116 cells,1.710
same,RQ BID,HCT116 cells,0.743
same,RQ BRAF,HCT116 cells,1.072
same,RQ CASP8,HCT116 cells,1.583
same,RQ CCND1,HCT116 cells,1.2 and 1.153
same,RQ CCND3,HCT116 cells,1.447
same,RQ CCNE1,HCT116 cells,1.075
same,RQ CDC42,HCT116 cells,1.755
same,RQ CDH1,HCT116 cells,3.7 and 3.659
same,RQ CDK2,HCT116 cells,1.467
same,RQ CDK4,HCT116 cells,1.390
same,RQ CDKN1A,HCT116 cells,1.331
same,RQ CDKN1B,HCT116 cells,1.039
same,RQ CDKN2A,HCT116 cells,2.5 and 2.469
same,RQ CRK,HCT116 cells,1.184
same,RQ CTNNB1,HCT116 cells,1.131
same,RQ CYCS,HCT116 cells,2.0 and 1.961
same,RQ DVL1,HCT116 cells,1.576
same,RQ E2F1,HCT116 cells,1.631
same,RQ EGFR,HCT116 cells,1.3 and 1.294
same,RQ ELK1,HCT116 cells,1.275
same,RQ ERBB2,HCT116 cells,1.941
same,RQ FADD,HCT116 cells,0.6 and 0.556
same,RQ FAS,HCT116 cells,1.496
same,RQ FGF2,HCT116 cells,1.120
same,RQ FN1,HCT116 cells,3.8 and 3.841
same,RQ FOS,HCT116 cells,11.9 and 11.943
same,RQ FYN,HCT116 cells,2.5 and 2.474
same,RQ FZD1,HCT116 cells,2.3 and 2.253
same,RQ GRB2,HCT116 cells,0.961
same,RQ GSK3B,HCT116 cells,1.191
same,RQ GUSB,HCT116 cells,4.5
same,RQ HRAS,HCT116 cells,0.777
same,RQ IGF1R,HCT116 cells,2.3 and 2.283
same,RQ ITGA2B,HCT116 cells,3.1 and 3.092
same,RQ ITGAV,HCT116 cells,1.4 and 1.426
same,RQ ITGB1,HCT116 cells,0.838
same,RQ JUN,HCT116 cells,3.7 and 3.708
same,RQ KDR,HCT116 cells,4.4 and 4.404
same,RQ KRAS,HCT116 cells,0.886
same,RQ MAP2K1,HCT116 cells,0.8 and 0.822
same,RQ MAP3K5,HCT116 cells,0.3 and 0.308
same,RQ MAPK1,HCT116 cells,1.305
same,RQ MAPK3,HCT116 cells,2.0 and 2.014
same,RQ MAPK8,HCT116 cells,1.411
same,RQ MAPK14,HCT116 cells,1.008
same,RQ MAX,HCT116 cells,3.6 and 3.614
same,RQ MDM2,HCT116 cells,0.794
same,RQ MYC,HCT116 cells,1.065
same,RQ NFKB1,HCT116 cells,1.288
same,RQ NFKB2,HCT116 cells,1.340
same,RQ NFKBIA,HCT116 cells,2.0 and 2.007
same,RQ NRAS,HCT116 cells,1.178
same,RQ PIK3CA,HCT116 cells,0.880
same,RQ PIK3R1,HCT116 cells,2.5 and 2.456
same,RQ PTEN,HCT116 cells,2.0 and 2.037
same,RQ PTK2,HCT116 cells,1.6 and 1.561
same,RQ PTK2B,HCT116 cells,2.3 and 2.270
same,RQ RAC1,HCT116 cells,1.1 and 1.059
same,RQ RAF1,HCT116 cells,2.0 and 1.951
same,RQ RB1,HCT116 cells,1.003
same,RQ RELA,HCT116 cells,1.390
same,RQ RHOA,HCT116 cells,1.129
same,RQ SHC1,HCT116 cells,0.4 and 0.436
same,RQ SMAD4,HCT116 cells,1.4 and 1.409
same,RQ SOS1,HCT116 cells,1.2 and 1.161
same,RQ SPP1,HCT116 cells,2.5
same,RQ SRC,HCT116 cells,1.584
same,RQ TGFB1,HCT116 cells,0.911
same,RQ TGFBR1,HCT116 cells,1.324
same,RQ TGFBR2,HCT116 cells,2.4 and 2.358
same,RQ TP53,HCT116 cells,3.5 and 3.478
same,RQ VEGFA,HCT116 cells,1.664
COc1cccc2c1C(=O)c1c(O)c3c(c(O)c1C2=O)C[C@@](O)(C(=O)CO)C[C@@H]3O[C@H]1C[C@H](N)[C@H](O)[C@H](C)O1 [Doxorubicin],IC50,"[4]; Mus musculus, Fibroblast",40 nM
same,RQ ABL1,HCT116 cells,0.912
same,RQ AKT1,HCT116 cells,1.840
same,RQ AKT2,HCT116 cells,3.877
same,RQ APC,HCT116 cells,0.908
same,RQ BAX,HCT116 cells,3.274
same,RQ BCAR1,HCT116 cells,1.809
same,RQ BCL2L1,HCT116 cells,2.391
same,RQ BCL2L11,HCT116 cells,1.152
same,RQ BID,HCT116 cells,1.757
same,RQ BRAF,HCT116 cells,0.513
same,RQ CASP9,HCT116 cells,0.530
same,RQ CCND3,HCT116 cells,1.438
same,RQ CCNE1,HCT116 cells,0.894
same,RQ CDC42,HCT116 cells,1.271
same,RQ CDK2,HCT116 cells,1.257
same,RQ CDK4,HCT116 cells,0.983
same,RQ CDKN1A,HCT116 cells,2.853
same,RQ CDKN1B,HCT116 cells,0.766
same,RQ CRK,HCT116 cells,0.867
same,RQ CTNNB1,HCT116 cells,0.939
same,RQ DVL1,HCT116 cells,1.252
same,RQ E2F1,HCT116 cells,1.018
same,RQ ELK1,HCT116 cells,1.263
same,RQ ERBB2,HCT116 cells,2.605
same,RQ FAS,HCT116 cells,2.372
same,RQ FGF2,HCT116 cells,0.625
same,RQ GRB2,HCT116 cells,0.761
same,RQ GSK3B,HCT116 cells,1.342
same,RQ GUSB,HCT116 cells,5.0
same,RQ HRAS,HCT116 cells,0.691
same,RQ ITGB1,HCT116 cells,0.489
same,RQ ITGB3,HCT116 cells,5.579
same,RQ KRAS,HCT116 cells,0.951
same,RQ MAPK1,HCT116 cells,0.903
same,RQ MAPK8,HCT116 cells,1.185
same,RQ MAPK14,HCT116 cells,0.786
same,RQ MDM2,HCT116 cells,1.479
same,RQ MYC,HCT116 cells,0.876
same,RQ NFKB1,HCT116 cells,0.784
same,RQ NFKB2,HCT116 cells,1.250
same,RQ NRAS,HCT116 cells,0.556
same,RQ PIK3CA,HCT116 cells,0.409
same,RQ RB1,HCT116 cells,0.532
same,RQ RELA,HCT116 cells,0.862
same,RQ RHOA,HCT116 cells,0.900
same,RQ SRC,HCT116 cells,1.383
same,RQ TCF3,HCT116 cells,1.135
same,RQ TGFB1,HCT116 cells,0.495
same,RQ TGFBR1,HCT116 cells,1.216
same,RQ VEGFA,HCT116 cells,0.610
same,RQ BCL2,HCT116 cells; listed as DOX,3.1 and 3.090
same,RQ CCND1,HCT116 cells; listed as DOX,1.1 and 1.124
same,RQ CDH1,HCT116 cells; listed as DOX,7.1 and 7.107
same,RQ CDKN2A,HCT116 cells; listed as DOX,1.8 and 1.793
same,RQ CYCS,HCT116 cells; listed as DOX,1.0 and 0.993
same,RQ EGFR,HCT116 cells; listed as DOX,0.8 and 0.831
same,RQ FADD,HCT116 cells; listed as DOX,1.1 and 1.049
same,RQ FN1,HCT116 cells; listed as DOX,3.6 and 3.575
same,RQ FOS,HCT116 cells; listed as DOX,11.8 and 11.834
same,RQ FYN,HCT116 cells; listed as DOX,1.3 and 1.248
same,RQ FZD1,HCT116 cells; listed as DOX,1.0 and 0.994
same,RQ IGF1R,HCT116 cells; listed as DOX,1.4 and 1.389
same,RQ ITGA2B,HCT116 cells; listed as DOX,4.5 and 4.514
same,RQ ITGAV,HCT116 cells; listed as DOX,1.3 and 1.265
same,RQ JUN,HCT116 cells; listed as DOX,4.1 and 4.073
same,RQ MAP2K1,HCT116 cells; listed as DOX,0.7 and 0.681
same,RQ MAP3K5,HCT116 cells; listed as DOX,1.0 and 1.006
same,RQ MAPK3,HCT116 cells; listed as DOX,2.8 and 2.758
same,RQ NFKBIA,HCT116 cells; listed as DOX,2.3 and 2.326
same,RQ PIK3R1,HCT116 cells; listed as DOX,2.0 and 1.999
same,RQ PTEN,HCT116 cells; listed as DOX,1.8 and 1.750
same,RQ PTK2,HCT116 cells; listed as DOX,1.2 and 1.182
same,RQ PTK2B,HCT116 cells; listed as DOX,3.4 and 3.368
same,RQ RAC1,HCT116 cells; listed as DOX,0.9 and 0.845
same,RQ RAF1,HCT116 cells; listed as DOX,2.0 and 2.027
same,RQ SHC1,HCT116 cells; listed as DOX,0.6 and 0.640
same,RQ SMAD4,HCT116 cells; listed as DOX,1.0 and 0.963
same,RQ SOS1,HCT116 cells; listed as DOX,0.7 and 0.741
same,RQ SPP1,HCT116 cells; listed as DOX,1.2 and 1.165
same,RQ TGFBR2,HCT116 cells; listed as DOX,0.9 and 0.914
same,RQ TP53,HCT116 cells; listed as DOX,3.3 and 3.250
